Results as given in ChEMBL document CHEMBL3865791, “Discovery and development of natural product oridonin-inspired anticancer agents” (Eur J Med Chem, 2016).

Legend:
[1] = Antiproliferative activity against human […] cells after 72 hrs by MTT assay; assay type: functional, cell-based
[2] = Antiproliferative activity against human K562 cells after 72 hrs by MTT assay; assay type: functional, cell-based; conditions: K562, 72 h
[3] = Antiproliferative activity against human MCF7 cells; assay type: functional, cell-based
[4] = Antiproliferative activity against human MDA-MB-231 cells; assay type: functional, cell-based
[5] = Antiproliferative activity against human ER-positive MCF7 cells measured after 48 hrs by MTT assay; assay type: functional, cell-based; conditions: MCF7, 48 h
[6] = Antiproliferative activity against human MDA-MB-231 cells measured after 48 hrs by MTT assay; assay type: functional, cell-based; conditions: MDA-MB-231, 48 h
[7] = Antiproliferative activity against human ER-triple negative MDA-MB-468 cells measured after 48 hrs by MTT assay; assay type: functional, cell-based; conditions: MDA-MB-468, 48 h
[8] = Antiproliferative activity against human MCF7/ADR cells measured after 48 hrs by MTT assay; assay type: functional, cell-based; conditions: NCI/ADR-RES
[9] = Antiproliferative activity against human CaEs17 cells after 72 hrs by MTT assay; assay type: functional, cell-based; conditions: CaEs17, 72 h
[10] = Antiproliferative activity against human MGC803 cells after 72 hrs by MTT assay; assay type: functional, cell-based; conditions: MGC-803, 72 h
MDA-MB-231 = experiment: Potency index, ratio of Oridonin EC50 to compound EC50 for human MDA-MB-231; assay type: functional
[11] = Antiproliferative activity against human […] cells after 24 hrs by MTT assay; assay type: functional, cell-based
[12] = Antitumor activity against H22 cells xenografted in ICR mouse assessed as tumor growth inhibition at 20 mg/kg/day, ip administered for 4 consecutive days relative to control; assay type: functional; conditions: read-out: TGI
[13] = Toxicity in iv dosed Sprague-Dawley rat administered qd for 28 days; assay type: organism-based; conditions: in vivo
[14] = Antitumor activity against human MGC803 cells xenografted in ICR mouse assessed as tumor growth inhibition at 40 mg/kg/day, ip for 25 consecutive days relative to control; assay type: functional; conditions: MGC-803, ip, read-out: TGI

C=C1C(=O)[C@]23[C@H](OC(=O)c4ccccc4C(=O)OCCCOc4no[n+]([O-])c4S(=O)(=O)c4ccccc4)[C@H]1CC[C@H]2[C@@]12CO[C@@]3(O)[C@@H](O)[C@@H]1C(C)(C)CC[C@@H]2O
EC50 [1]: 860 nM | EC50 [2]: 1820 nM

C=C1C(=O)[C@]23[C@H](O)[C@H]1CC[C@H]2[C@@]12CO[C@@]3(O)[C@@H](O)[C@@H]1C(C)(C)Cc1sc(NC(C)=O)nc12
EC50 [3]: 2000 nM | EC50 [4]: 6800 nM

C=CCO[C@H]1CCC2=C(O1)[C@@]13CO[C@@]4(OC(C)(C)O[C@@H]5[C@H]6CC[C@@H]1[C@]54C(=O)C6=C)[C@@H](O)[C@@H]3C(C)(C)C2
EC50 [5]: 4300 nM | EC50 [6]: 7100 nM | EC50 [7]: 4900 nM | EC50 [8]: 4300 nM

C=C1C(=O)[C@@]23C(=O)O[C@H]4CCC(C)(C)[C@H]5[C@H](O)OC[C@@]45[C@@H]2CC[C@@H]1[C@H]3OC(=O)c1ccccc1
EC50 [1]: 1420 nM | EC50 [9]: 540 nM | EC50 [10]: 930 nM | EC50 [2]: 210 nM

C=C1C(=O)[C@@]23[C@@H]4OC(C)(C)O[C@@]25OC[C@]2(C6=C(CC[C@H](OCC(C)C)O6)CC(C)(C)[C@H]2[C@@H]5O)[C@@H]3CC[C@@H]14
EC50 [5]: 2200 nM | EC50 [6]: 1800 nM | EC50 [7]: 2600 nM | EC50 [8]: 4400 nM

C=C1C(=O)[C@@]23[C@@H]4OC(C)(C)O[C@@]25OC[C@]2([C@@H](n6cc(-c7ccccc7)nn6)C=CC(C)(C)[C@H]2[C@@H]5O)[C@@H]3CC[C@@H]14
Ratio EC50 (MDA-MB-231): 61 | EC50 [6]: 480 nM

C=C1C(=O)[C@]23[C@H](OC(=O)CC(CCCCCCCCCCCC)C(=O)O)[C@H]1CC[C@H]2[C@@]12CO[C@@]3(O)[C@@H](O)[C@@H]1C(C)(C)CC[C@@H]2O (stereo partly drawn)
EC50 [11]: 2060 nM | inhibition in vivo at 20 mg/kg/day [12]: 63.7%

C=C1C(=O)[C@@]23[C@@H]4OC(C)(C)O[C@@]25OC[C@]2(C6=C(CC[C@@H](OCCCC)O6)CC(C)(C)[C@H]2[C@@H]5O)[C@@H]3CC[C@@H]14
EC50 [5]: 2400 nM | EC50 [6]: 3700 nM | EC50 [7]: 5800 nM | EC50 [8]: 6800 nM

C=C1C(=O)[C@]23[C@H](O)[C@H]1CC[C@H]2[C@@]12CO[C@@]3(O)[C@@H](O)[C@@H]1C(C)(C)Cc1sc(N(C)C)nc12
EC50 [3]: 800 nM | EC50 [4]: 300 nM

C=C1C(=O)[C@@]23[C@@H]4OC(C)(C)O[C@@]25OC[C@]2(C6=C(CC[C@H](OCCCl)O6)CC(C)(C)[C@H]2[C@@H]5O)[C@@H]3CC[C@@H]14
EC50 [5]: 2300 nM | EC50 [6]: 3300 nM | EC50 [7]: 3000 nM | EC50 [8]: 3100 nM

C=C1C(=O)[C@]23[C@H](O)[C@H]1CC[C@H]2[C@@]12CO[C@@]3(O)[C@@H](O)[C@@H]1C(C)(C)Cc1sc(NCCCC)nc12
EC50 [3]: 600 nM | EC50 [4]: 1100 nM

C=CCO[C@@H]1CCC2=C(O1)[C@@]13CO[C@@]4(OC(C)(C)O[C@@H]5[C@H]6CC[C@@H]1[C@]54C(=O)C6=C)[C@@H](O)[C@@H]3C(C)(C)C2
EC50 [5]: 2100 nM | EC50 [6]: 3300 nM | EC50 [7]: 4400 nM | EC50 [8]: 3200 nM

C=C1C(=O)[C@@]23C(=O)O[C@H]4CCC(C)(C)[C@H]5C(=O)OC[C@@]45[C@@H]2CC[C@@H]1[C@H]3OC(=O)c1ccc(C)cc1
EC50 [1]: 1580 nM | EC50 [9]: 1780 nM | EC50 [10]: 1540 nM | EC50 [2]: 520 nM

C=C1C(=O)[C@]23[C@H](OC(=O)[C@H](C)N)[C@H]1CC[C@H]2[C@@]12CO[C@@]3(O)[C@@H](O)[C@@H]1C(C)(C)CC[C@@H]2O.O=C(O)C(F)(F)F
NOAEL at 672 h [13]: 40 mg/kg

C=C1C(=O)[C@@]23C(=O)O[C@H]4CCC(C)(C)[C@H]5C(=O)OC[C@@]45[C@@H]2CC[C@@H]1[C@H]3OC(=O)c1cccnc1
EC50 [1]: 710 nM | EC50 [9]: 3540 nM | EC50 [10]: 1160 nM | EC50 [2]: 1740 nM | inhibition in vivo at 40 mg/kg/day [14]: 64.8%

C=C1C(=O)[C@@]23C(=O)O[C@H]4CCC(C)(C)[C@H]5[C@H](O)OC[C@@]45[C@@H]2CC[C@@H]1[C@H]3OC(=O)c1ccc(C)cc1
EC50 [1]: 1010 nM | EC50 [9]: 450 nM | EC50 [10]: 610 nM | EC50 [2]: 140 nM

C=C1C(=O)[C@@]23C(=O)O[C@H]4CCC(C)(C)[C@H]5C(=O)OC[C@@]45[C@@H]2CC[C@@H]1[C@H]3OC(=O)c1ccc(Cl)cc1
EC50 [1]: 890 nM | EC50 [9]: 340 nM | EC50 [10]: 340 nM | EC50 [2]: 140 nM

C=C1C(=O)[C@@]23C(=O)O[C@H]4CCC(C)(C)[C@H]5C(=O)OC[C@@]45[C@@H]2CC[C@@H]1[C@H]3OC(=O)c1ccccc1
EC50 [1]: 790 nM | EC50 [9]: 810 nM | EC50 [10]: 460 nM | EC50 [2]: 330 nM
